Experimental data reported in PubChem BioAssay AID1845217 (Molecular Pharmacology Branch, DTP, NCI, 2023).
Where “and” joins values, the source holds several entries; their conditions need not be identical. Equal values may be shown once.

System: VA-ES-BJ tumor spheroid viability
Test: Anticancer human tumor VA-ES-BJ cell line growth inhibition;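 also: spheroids exposed to compounds for seven days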;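 as to viability, T/C: percent of DMSO vehicle control viability so 100% = untreated growth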
Details: spheroids with HUVEC and MSC; for viability, T/C: stronger effect = lower value
In short: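 Complex tumor spheroids combined malignant cells with endothelial cells and mesenchymal stem cells. DNA-damaging drugs and DNA repair inhibitors were tested alone and in combination, at half-log dilutions down from clinical Cmax (top 10 microM if Cmax unknown), 0.25% DMSO final.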

[1] = curve of first compound, second compound 1 µM
[2] = curve of first compound, second compound 3.16 µM
[3] = curve of first compound, second compound 10 µM
[4] = curve of first compound, second compound 31.6 µM
[5] = curve of first compound, second compound 100 µM
[6] = second compound 1 µM, first compound 0.00949 µM
[7] = second compound 1 µM, first compound 0.03 µM
[8] = second compound 1 µM, first compound 0.0949 µM
[9] = second compound 1 µM, first compound 0.3 µM
[10] = second compound 1 µM, first compound 0.949 µM
[11] = second compound 1 µM, first compound 3 µM
[12] = second compound 3.16 µM, first compound 0.00949 µM
[13] = second compound 3.16 µM, first compound 0.03 µM
[14] = second compound 3.16 µM, first compound 0.0949 µM
[15] = second compound 3.16 µM, first compound 0.3 µM
[16] = second compound 3.16 µM, first compound 0.949 µM
[17] = second compound 3.16 µM, first compound 3 µM
[18] = second compound 10 µM, first compound 0.00949 µM
[19] = second compound 10 µM, first compound 0.03 µM
[20] = second compound 10 µM, first compound 0.0949 µM
[21] = second compound 10 µM, first compound 0.3 µM
[22] = second compound 10 µM, first compound 0.949 µM
[23] = second compound 10 µM, first compound 3 µM
[24] = second compound 31.6 µM, first compound 0.00949 µM
[25] = second compound 31.6 µM, first compound 0.03 µM
[26] = second compound 31.6 µM, first compound 0.0949 µM
[27] = second compound 31.6 µM, first compound 0.3 µM
[28] = second compound 31.6 µM, first compound 0.949 µM
[29] = second compound 31.6 µM, first compound 3 µM
[30] = second compound 100 µM, first compound 0.00949 µM
[31] = second compound 100 µM, first compound 0.03 µM
[32] = second compound 100 µM, first compound 0.0949 µM
[33] = second compound 100 µM, first compound 0.3 µM
[34] = second compound 100 µM, first compound 0.949 µM
[35] = second compound 100 µM, first compound 3 µM

For `COc1cc(C)[nH]c(=O)c1CN1CCc2c(Cl)cc(C(OC)C3COC3)c(Cl)c2C1=O` (centres undefined) + CC[C@@]1(O)C(=O)OCc2c1cc1n(c2=O)Cc2cc3c(CN(C)C)c(O)ccc3nc2-1, the IC50 (curve of first compound, second compound 0.003 µM) was greater than 10000 nM, the IC50 (curve of first compound, second compound 0.00949 µM) was 5100 nM and the IC50 (curve of first compound, second compound 0.03 µM) was less than 31.6 nM. The IC50 (curve of first compound, second compound 0.0949 µM) was less than 31.6 nM, the IC50 (curve of first compound, second compound 0.3 µM) was less than 31.6 nM and the viability, T/C (second compound 0.003 µM, first compound 0.0316 µM) was 99.6%. For the same compound, the viability, T/C (second compound 0.003 µM, first compound 0.1 µM) was 88.8%, the viability, T/C (second compound 0.003 µM, first compound 0.316 µM) was 70.9% and the viability, T/C (second compound 0.003 µM, first compound 1 µM) was 64.2%. The viability, T/C (second compound 0.003 µM, first compound 3.16 µM) was 54.9%, the viability, T/C (second compound 0.003 µM, first compound 10 µM) was 52.5% and the viability, T/C (second compound 0.00949 µM, first compound 0.0316 µM) was 93.2%. The viability, T/C (second compound 0.00949 µM, first compound 0.1 µM) was 88.8%, the viability, T/C (second compound 0.00949 µM, first compound 0.316 µM) was 74.5% and the viability, T/C (second compound 0.00949 µM, first compound 1 µM) was 65.5%. It also gave a viability, T/C (second compound 0.00949 µM, first compound 3.16 µM) of 53%, a viability, T/C (second compound 0.00949 µM, first compound 10 µM) of 45.4% and a viability, T/C (second compound 0.03 µM, first compound 0.0316 µM) of 50.1%. It also gave a viability, T/C (second compound 0.03 µM, first compound 0.1 µM) of 47.5%, a viability, T/C (second compound 0.03 µM, first compound 0.316 µM) of 47.3% and a viability, T/C (second compound 0.03 µM, first compound 1 µM) of 46.9%. For the same compound, the viability, T/C (second compound 0.03 µM, first compound 3.16 µM) was 42.3%, the viability, T/C (second compound 0.03 µM, first compound 10 µM) was 38.4% and the viability, T/C (second compound 0.0949 µM, first compound 0.0316 µM) was 8.85%. For the same compound, the viability, T/C (second compound 0.0949 µM, first compound 0.1 µM) was 9.47%, the viability, T/C (second compound 0.0949 µM, first compound 0.316 µM) was 8.43% and the viability, T/C (second compound 0.0949 µM, first compound 1 µM) was 8.57%. It also gave a viability, T/C (second compound 0.0949 µM, first compound 3.16 µM) of 8.44%, a viability, T/C (second compound 0.0949 µM, first compound 10 µM) of 9.48% and a viability, T/C (second compound 0.3 µM, first compound 0.0316 µM) of 6.48%. The viability, T/C (second compound 0.3 µM, first compound 0.1 µM) was 6.48%, the viability, T/C (second compound 0.3 µM, first compound 0.316 µM) was 6.57% and the viability, T/C (second compound 0.3 µM, first compound 1 µM) was 6.59%. It also gave a viability, T/C (second compound 0.3 µM, first compound 3.16 µM) of 5.96% and a viability, T/C (second compound 0.3 µM, first compound 10 µM) of 6.06%.
With `COc1ccc([C@@H](O)c2cc(-c3ncnc4cc(N5CCOCC5)ccc34)c(F)cc2Cl)nn1` the viability, T/C (compound 0.0316 µM) was 99.7% and 97.1% and 92.4%, the viability, T/C (compound 0.1 µM) was 113% and 95.6% and 88.6% and the viability, T/C (compound 0.316 µM) was 71.4% and 65.5% and 79.8%. The viability, T/C (compound 1 µM) was 45.9% and 32.2% and 52%, the viability, T/C (compound 3.16 µM) was 17.3% and 11.2% and 21.3% and the viability, T/C (compound 10 µM) was 10.2% and 6.84% and 8.9%. For the same compound, the IC50 (curve of compound) was 780 nM and 549 nM and 1080 nM.
Compound `Cn1ncnc1[C@H]1c2n[nH]c(=O)c3cc(F)cc(c23)N[C@@H]1c1ccc(F)cc1` + Cn1nnc2c(C(N)=O)ncn2c1=O has an IC50 [1] of 537 nM, an IC50 [2] of 216 nM and an IC50 [3] of 57.3 nM. For the same compound, the IC50 [4] was less than 9.49 nM, the IC50 [5] was less than 9.49 nM and the viability, T/C [6] was 97.4%. It also gave a viability, T/C [7] of 90.7%, a viability, T/C [8] of 81.8% and a viability, T/C [9] of 68.7%. It also gave a viability, T/C [10] of 33.1%, a viability, T/C [11] of 7.3% and a viability, T/C [12] of 94.4%. The viability, T/C [13] was 51.4%, the viability, T/C [14] was 68.4% and the viability, T/C [15] was 55.3%. The viability, T/C [16] was 25.1%, the viability, T/C [17] was 7.36% and the viability, T/C [18] was 72.3%. The viability, T/C [19] was 58.8%, the viability, T/C [20] was 42.8% and the viability, T/C [21] was 26.3%. For the same compound, the viability, T/C [22] was 10.4%, the viability, T/C [23] was 7.26% and the viability, T/C [24] was 33%. For the same compound, the viability, T/C [25] was 20.1%, the viability, T/C [26] was 13.4% and the viability, T/C [27] was 10.1%. The viability, T/C [28] was 7.36%, the viability, T/C [29] was 5.8% and the viability, T/C [30] was 12.1%. The viability, T/C [31] was 7.76%, the viability, T/C [32] was 7.62% and the viability, T/C [33] was 7.16%. It also gave a viability, T/C [34] of 6.55% and a viability, T/C [35] of 5.96%.
For `CNCc1ccc(-c2cc(-c3nc(-c4ccc(S(=O)(=O)C(C)C)cc4)cnc3N)on2)cc1` + Cn1nnc2c(C(N)=O)ncn2c1=O, the IC50 [1] was 404 nM, the IC50 [2] was 370 nM and the IC50 [3] was 339 nM. It also gave an IC50 [4] of 289 nM, an IC50 [5] of 188 nM and a viability, T/C [6] of 87.8%. For the same compound, the viability, T/C [7] was 82%, the viability, T/C [8] was 84% and the viability, T/C [9] was 63.3%. For the same compound, the viability, T/C [10] was 11.8%, the viability, T/C [11] was 2.45% and the viability, T/C [12] was 85.5%. The viability, T/C [13] was 85.3%, the viability, T/C [14] was 74.4% and the viability, T/C [15] was 59.9%. The viability, T/C [16] was 12.8%, the viability, T/C [17] was 1.99% and the viability, T/C [18] was 86.9%. For the same compound, the viability, T/C [19] was 92.2%, the viability, T/C [20] was 79.1% and the viability, T/C [21] was 56.1%. It also gave a viability, T/C [22] of 10.4%, a viability, T/C [23] of 2.81% and a viability, T/C [24] of 91.1%. It also gave a viability, T/C [25] of 85%, a viability, T/C [26] of 72.7% and a viability, T/C [27] of 53.5%. The viability, T/C [28] was 10.2%, the viability, T/C [29] was 3.57% and the viability, T/C [30] was 95.6%. The viability, T/C [31] was 76.7%, the viability, T/C [32] was 68% and the viability, T/C [33] was 41.7%. It also gave a viability, T/C [34] of 11.7% and a viability, T/C [35] of 2.21%.
`Cn1ncnc1[C@H]1c2n[nH]c(=O)c3cc(F)cc(c23)N[C@@H]1c1ccc(F)cc1` was tested, and the viability, T/C (compound 0.00949 µM) was 82.2% and 101% and 87.7%, the viability, T/C (compound 0.03 µM) was 81.7% and 78.2% and 85.3% and the viability, T/C (compound 0.0949 µM) was 68.5% and 82.6% and 74.7%. The viability, T/C (compound 0.3 µM) was 55.8% and 65.9% and 58.5%, the viability, T/C (compound 0.949 µM) was 33.7% and 41.4% and 36% and the viability, T/C (compound 3 µM) was 7.23% and 7.48% and 6.56%. The IC50 (curve of compound) was 400 nM and 619 nM and 469 nM.
